“And” between values parts separate entries of the source, which are not always exact repeats. Identical values can stand only once.

One test has as its system I83 cell line. The settings on record: drug alone, MTT 72 hours.
For test [1], the system named is lymphocytes from CLL patients. As to the kind of experiment: MTT cytotoxic assay, lymphocytes from CLL patients. The settings on record: drug alone. Type of test: cell-based, human.

Turning to `O=C(O)CCCc1ccc(N(CCCl)CCCl)cc1` [CLB, chlorambucil], the LD50 with I83 cell line is 40.66 µM and 40.66 ± 2.80 µM; in test [1] (CLL patient T^1 (previously treated with CLB)), 9.29 µM; in test [1] (CLL patient T^2 (previously treated with CLB)), 23.1 µM; in test [1] (CLL patient T^3 (previously treated with CLB)), 5.56 µM; in test [1] (CLL patient T^4 (previously treated with CLB)), 79.7 µM; in test [1] (CLL patient T^5 (previously treated with CLB)) it was 49.2 µM. For the same compound, the LD50 amounted to 14.6 µM in test [1] (CLL patient U^1 (untreated)); 28.49 µM in test [1] (CLL patient U^2 (untreated)); 20.02 µM in test [1] (CLL patient U^3 (untreated)); 54.2 µM in test [1] (CLL patient U^4 (untreated)); 12.27 µM in test [1] (CLL patient U^5 (untreated)); 18.08 µM in test [1] (CLL patient U^6 (untreated)). Also, the LD50 in test [1] (CLL patient U^7 (untreated)) is 7.84 µM.

Source of the values: patent publication US8492383B2 (Jewish General Hospital, priority 2002, dated 2013).
